“Also recorded” adds a separate entry of the source. Read-outs that look alike come from different tables or passages of the source.
Columns and labels:
[1] = test system: wild-type HIV-1 (HIV-1LAI) in MT-4 cells (permissive); experiment: Antiviral activity assay: wild-type HIV-1 in permissive MT4 cells, reverse transcriptase activity in culture supernatants; assay type: cell-based
[2] = test system: wild-type HIV-1 (HIV-1LAI) in H9 cells (non-permissive); experiment: microbe, parasite or virus in culture; assay type: cell-based; conditions: for viral replication (reverse transcriptase activity in supernatants): HIV-1LAI, up to 50 μM, 15 days
[3] = test system: HA-tagged A3G and GFP-tagged Vif or ΔVif in 293FT cells; experiment: Immunoblot of A3G and Vif levels in transfected 293FT cells; conditions: 293FT cells, 50 μM, 16 h
HSP90 = experiment: ViTAP (Vif inhibitor Target Affinity Purification): streptavidin affinity purification of compound-bound proteins; assay type: binding; conditions: transfected 293FT cells, streptavidin affinity purification
[4] = Human immunodeficiency virus 1, MT4, Table 2, wild-type HIV-1, permissive MT4 cells, read-out: Antiviral activity (IC50 μM) MT4
[5] = Human immunodeficiency virus 1, MT4, wild-type HIV-1 (HIV-1LAI), MT4 cells (permissive), RT activity in culture supernatants, compounds 1 to 50 μM, read-out: Antiviral activity (IC50 μM) MT4 cells
[6] = Human immunodeficiency virus 1, H9, read-out: Antiviral activity (IC50 μM) H9, Table 2, wild-type HIV-1, non-permissive H9 cells
[7] = Human immunodeficiency virus 1, H9, read-out: Antiviral activity (IC50 μM) H9 Cells, Table 4, wild-type HIV-1, non-permissive H9 cells
[8] = Human immunodeficiency virus 1, H9, read-out: Antiviral activity (IC50 μM) H9 Cells, Table 7, wild-type HIV-1, non-permissive H9 cells
[9] = Human immunodeficiency virus 1, H9, read-out: Antiviral activity (IC50 μM) H9 cells, Table 5, wild-type HIV-1, non-permissive H9 cells
[10] = Human immunodeficiency virus 1, H9, read-out: Antiviral activity (IC50 μM) H9 cells, Table 8, wild-type HIV-1, non-permissive H9 cells
[11] = Human immunodeficiency virus 1, H9, read-out: Antiviral activity (IC50 μM) H9 cells, wild-type HIV-1 (HIV-1LAI), H9 cells (non-permissive), RT activity in culture supernatants, compounds 1 to 50 μM
[12] = Human immunodeficiency virus 1, H9, read-out: IC50, anti-HIV-1 activity, non-permissive H9 cells

| Compound | IC50 [1, 4] [µM] | IC50 [1, 5] [µM] | fold more potent than the original lead molecule RN-18 ([2]; H9 cells, IC50 compared with RN-18) | IC50 [2, 6] [µM] | IC50 [2, 7] [µM] | IC50 [2, 8] [µM] | IC50 [2, 9] [µM] | IC50 [2, 10] [µM] | IC50 [2, 11] [µM] | IC50 [2, 12] [µM] | upregulation of A3G and downregulation of Vif (immunoblots, FIG. 16) [3] | viral replication (reverse transcriptase activity in supernatants) ([2]; H9 cells) | co-purification of HSP90 (90 kDa protein) with the compound (HSP90) | viral replication (reverse transcriptase activity in supernatants) ([1]; MT4 cells, HIV-1LAI, up to 50 μM, 15 days) |
| --- | --- | --- | --- | --- | --- | --- | --- | --- | --- | --- | --- | --- | --- | --- |
| COc1ccc(OC)c(-n2cc(-c3ccccc3Sc3ccc([N+](=O)[O-])cc3)nn2)c1 [Compound 5ax, 1-(2,5-Dimethoxyphenyl)-4-(2-((4-nitrophenyl)thio)phenyl)-1H-1,2,3-triazole] | > 50 | > 50 | about 1000 fold | 0.01 | 0.01 | 0.01 | 0.01 | 0.01 | 0.01 | 0.01 | same mechanism as of RN-18; also recorded: same mechanism as observed for RN-18 and 1d | – | – | – |
| COc1cc(C(=O)NCCOCCOCCOCCNC(=O)CCCCC2SCC3NC(=O)NC32)ccc1NC(=O)c1ccccc1Sc1ccc([N+](=O)[O-])cc1 (centres unmarked) [IMD40, 3-methoxy-4-(2-((4-nitrophenyl)thio)benzamido)-N-(13-oxo-17-(2-oxohexahydro-1H-thieno[3,4-d]imidazol-4-yl)-3,6,9-trioxa-12-azaheptadecyl)benzamide] | – | – | – | – | – | – | – | – | – | – | – | dose-dependently inhibited viral replication | binds HSP90; also recorded: purified a specific 90 kDa protein | – |
| COc1ccccc1-n1cc(-c2ccccc2Sc2ccc(C(F)(F)F)cc2)nn1 [Compound 2dx, 1-(2-Methoxyphenyl)-4-(2-((4-(trifluoromethyl)phenyl)thio)phenyl)-1H-1,2,3-triazole] | > 50 | > 50 | – | 2.6 | 2.6 | 2.6 | 2.6 | 2.6 | 2.6 | 1 to 3 | same mechanism as of RN-18; also recorded: same mechanism as observed for RN-18 and 1d | – | – | – |
| COC(=O)c1ccc(S(=O)(=O)c2ccccc2-c2cn(-c3cc(OC)ccc3OC)nn2)cc1 [Compound 5by, Methyl 4-((2-(1-(2,5-dimethoxyphenyl)-1H-1,2,3-triazol-4-yl)phenyl)sulfonyl)benzoate] | > 50 | > 50 | – | 4.6 | 4.6 | 4.6 | 4.6 | 4.6 | 4.6 | – | – | – | – | – |
| COc1cccc(-n2cc(-c3ccccc3Sc3ccc(C(=O)O)cc3)nn2)c1OC [Compound 3fx, 4-((2-(1-(2,3-Dimethoxyphenyl)-1H-1,2,3-triazol-4-yl)phenyl)thio)benzoic Acid] | > 50 | > 50 | – | 2.8 | 2.8 | 2.8 | 2.8 | 2.8 | 2.8 | 1 to 3 | – | – | – | – |
| COc1cccc(-n2cc(-c3ccccc3Sc3ccc(C(F)(F)F)cc3)nn2)c1OC [Compound 3dx, 1-(2,3-Dimethoxyphenyl)-4-(2-((4-(trifluoromethyl)phenyl)thio)phenyl)-1H-1,2,3-triazole] | > 50 | > 50 | – | 1.9 | 1.9 | 1.9 | 1.9 | 1.9 | 1.9 | 1 to 3 | – | – | – | – |
| COc1ccc(S(=O)(=O)c2ccccc2-c2cn(-c3c(OC)cccc3OC)nn2)cc1 [Compound 6cy, 1-(2,6-Dimethoxyphenyl)-4-(2-((4-methoxyphenyl)sulfonyl)phenyl)-1H-1,2,3-triazole] | > 50 | > 50 | – | > 50 | – | – | > 50 | > 50 | > 50 | – | – | – | – | – |
| COc1ccc(S(=O)(=O)c2ccccc2-c2cn(-c3ccc(OC)cc3OC)nn2)cc1 [Compound 4cy, 1-(2,4-Dimethoxyphenyl)-4-(2-((4-methoxyphenyl)sulfonyl)phenyl)-1H-1,2,3-triazole] | > 50 | > 50 | – | > 50 | – | – | > 50 | > 50 | > 50 | – | – | – | – | – |
| COc1ccccc1C(=O)NCCOCCOCCOCCNC(=O)CCCCC1SCC2NC(=O)NC21 (centres unmarked) [IMD41, 2-methoxy-N-(13-oxo-17-(2-oxohexahydro-1H-thieno[3,4-d]imidazol-4-yl)-3,6,9-trioxa-12-azaheptadecyl)benzamide] | – | – | – | – | – | – | – | – | – | – | – | no effect on viral replication | did not co-purify | no effect on viral replication |
| COc1cccc(OC)c1-n1cc(-c2ccccc2S(=O)(=O)c2ccc(C(=O)O)cc2)nn1 [Compound 6fy, 4-((2-(1-(2,6-Dimethoxyphenyl)-1H-1,2,3-triazol-4-yl)phenyl)sulfonyl)benzoic Acid] | > 50 | > 50 | – | 1.2 | 1.2 | 1.2 | 1.2 | 1.2 | 1.2 | 1 to 3 | – | – | – | – |
| COc1ccccc1-n1cc(-c2ccccc2S(=O)(=O)c2ccc(N)cc2)nn1 [Compound 2ey, 4-((2-(1-(2-Methoxyphenyl)-1H-1,2,3-triazol-4-yl)phenyl)sulfonyl)aniline] | > 50 | > 50 | – | 0.4 | 0.4 | 0.4 | 0.4 | 0.4 | 0.4 | 0.4 | same mechanism as of RN-18; also recorded: same mechanism as observed for RN-18 and 1d | – | – | – |
| COc1ccc(OC)c(-n2cc(-c3ccccc3S(=O)(=O)c3ccc(N)cc3)nn2)c1 [Compound 5ey, 4-((2-(1-(2,5-Dimethoxyphenyl)-1H-1,2,3-triazol-4-yl)phenyl)sulfonyl)aniline] | > 50 | > 50 | – | 0.6 | 0.6 | 0.6 | 0.6 | 0.6 | 0.6 | – | same mechanism as of RN-18; also recorded: same mechanism as observed for RN-18 and 1d | – | – | – |
| COc1cccc(F)c1-n1cc(-c2ccccc2S(=O)(=O)c2ccc(N)cc2)nn1 [Compound 7ey, 4-((2-(1-(2-Fluoro-6-methoxyphenyl)-1H-1,2,3-triazol-4-yl)phenyl)sulfonyl)aniline] | > 50 | > 50 | – | 15 | 15 | 15 | 15 | 15 | 15 | – | – | – | – | – |
| COc1ccccc1-n1cc(-c2ccccc2Sc2ccc(C(=O)O)cc2)nn1 [Compound 2fx, 4-((2-(1-(2-Methoxyphenyl)-1H-1,2,3-triazol-4-yl)phenyl)thio)benzoic Acid] | > 50 | > 50 | – | 1 | 1 | 1 | 1 | 1 | 1 | 1 to 3 | – | – | – | – |
| COc1cccc(-n2cc(-c3ccccc3S(=O)(=O)c3ccc(C(=O)O)cc3)nn2)c1OC [Compound 3fy, 4-((2-(1-(2,3-Dimethoxyphenyl)-1H-1,2,3-triazol-4-yl)phenyl)sulfonyl)benzoic Acid] | > 50 | > 50 | – | 1.4 | 1.4 | 1.4 | 1.4 | 1.4 | 1.4 | 1 to 3 | – | – | – | – |
| COC(=O)c1ccc(Sc2ccccc2-c2cn(-c3cccc(OC)c3OC)nn2)cc1 [Compound 3bx, Methyl 4-((2-(1-(2,3-dimethoxyphenyl)-1H-1,2,3-triazol-4-yl)phenyl)thio)benzoate] | > 50 | > 50 | – | 8 | 8 | 8 | 8 | 8 | 8 | – | – | – | – | – |
| COC(=O)c1ccc(S(=O)(=O)c2ccccc2-c2cn(-c3cccc(OC)c3OC)nn2)cc1 [Compound 3by, Methyl 4-((2-(1-(2,3-dimethoxyphenyl)-1H-1,2,3-triazol-4-yl)phenyl)sulfonyl)benzoate] | > 50 | > 50 | – | 4.7 | 4.7 | 4.7 | 4.7 | 4.7 | 4.7 | – | – | – | – | – |

Source: patent US11136301B2, “Broad spectrum antiviral compounds and uses thereof” (The Regents Of The University Of California, priority 2015, dated 2021)
